Counter-ions that a name gives are not always drawn.
Target: T1, Human α-thrombin (Homo sapiens, UniProt P00734)
T1 construct: Human α-thrombin (Enzyme Research Laboratories HT1002a); purchased Enzyme Research Laboratories (South Bend, Ind.) HT1002a
Experiment: In vitro inhibition of purified enzyme; kinetic analysis by chromogenic substrates
Type: biochemical
Settings: substrate SucAAPR pNA 100 uM, Km=320 μM, Ki factor=0.76; 37° C., pH 7.5, 4% DMSO; thrombin 1.1 nM; Ki=IC50×Ki factor
Protocol: In Vitro Inhibition of Purified Enzyme
Reagents: All buffer salts were obtained from Sigma Chemical Company (St. Louis, Mo.), and were of the highest purity available.
Human α-thrombin, was obtained from Enzyme Research Laboratories (South Bend, Ind.).
Kinetic Analysis by Chromogenic Substrates
Compounds were assessed for their inhibitory activity toward Thrombin by kinetic analysis using para-nitroaniline chromogenic substrates monitored at 405 nm. The assay buffer employed was 50 mM HEPES, pH 7.5, 200 mM NaCl, and fresh 0.05% n-octyl β-d-glucopyranoside. DMSO was present at a final concentration of 4%, derived from the substrate and inhibitory compound stock solutions. […] Reactions were initiated by addition of 10 μL protease, and increase in absorbance due to proteolytic cleavage of substrate was kinetically monitored at 37° C., 405 nm with a Molecular Devices Spectramax 340 platereader. Initial velocities were determined by analysis of the initial linear portion of the reactions. Plots of vo/vi vs. inhibitor concentration, where vo=velocity without inhibitor, and vi=inhibited velocity, were fit to a linear regression line, and the IC50 was determined from the reciprocal of the slope. […]

N#Cc1cc(F)c(NCC(F)(F)c2ccccn2)[n+]([O-])c1CC(=O)NCc1ncccc1F [Example 1, 2-[3-Cyano-6-(2,2-difluoro-2-pyridin-2-yl-ethylamino)-5-fluoro-1-oxy-pyridin-2-yl]-N-(3-fluoro-pyridin-2-ylmethyl)-acetamide dihydrochloride]
Ki: 9.8 to 11 nM
